Source: US6395683B1, “Heterocyclylbenzonitriles” (Bayer Aktiengesellschaft, priority 1994, dated 2002)

Columns and labels:
Assay in all cases: Post-emergence test
Format in all cases: in vivo
Abutilon = settings: 30 g/ha, after three weeks
Procedure: (§1) Post-emergence Test Solvent: 5 parts by weight of acetone Emulsifier: 1 part by weight of alkylaryl polyglycol ether To produce a suitable preparation of active compound, 1 part by weight of active compound is mixed with the stated amount of solvent, the stated amount of emulsifier is added and the concentrate is diluted with water to the desired concentration. Test plants which have a height of 5-15 cm are sprayed with the preparation of the active compound in such a way as to apply the particular amounts of active compound desired per unit area. After three weeks, the degree of damage to the plants is rated in % damage in comparison to the development of the untreated control. The figures denote: 0%=no action (like untreated control) 100%=total destruction

Amaranthus = settings: 30 g/ha, after three weeks
Procedure: as §1

Chenopodium = settings: 30 g/ha, after three weeks
Procedure: as §1

Veronica = settings: 30 g/ha, after three weeks
Procedure: as §1

barley = settings: 30 g/ha, barley (crop plant), after three weeks
Procedure: as §1

`CS(=O)(=O)Nc1cc(N2C(=O)C3=C(CCCC3)C2=O)c(F)cc1C#N` [Example 1, N-(4-cyano-2-fluoro-5-methylsulphonylaminophenyl)-3,4,5,6-tetrahydrophthalimide] was tested, and the “degree of damage to the plants, % damage in comparison to untreated control” value (“degree of damage to the plants, % damage” for short) (Abutilon) was 100%, the “degree of damage to the plants, % damage” value (Amaranthus) was 100% and the “degree of damage to the plants, % damage” value (Chenopodium) was 95%. For the same compound, the “degree of damage to the plants, % damage” value (Veronica) was 100% and the “tolerance with respect to crop plants” value (barley) was “very good tolerance”.
